Several values for one entry are separate records, joined by “and”; a condition that tells them apart may be missing. Equal values may be shown once. Read-outs that look alike come from different tables or passages of the source.
Tests used:
[1] = target: T1, human α1β2γ3 GABAA receptors (Homo sapiens, UniProt P14867+P47870+Q99928); details: for Modulation at 10 μM: 10 μM co-applied with GABA EC10, percentage potentiation of GABA EC10; for Emax (%): percent of current through GABA EC10, Hill fit; for fold greater potency at γ3 receptors compared with γ2: EC50 α1β2γ2 vs α1β2γ3
T1 sequence (Q99928 18-467): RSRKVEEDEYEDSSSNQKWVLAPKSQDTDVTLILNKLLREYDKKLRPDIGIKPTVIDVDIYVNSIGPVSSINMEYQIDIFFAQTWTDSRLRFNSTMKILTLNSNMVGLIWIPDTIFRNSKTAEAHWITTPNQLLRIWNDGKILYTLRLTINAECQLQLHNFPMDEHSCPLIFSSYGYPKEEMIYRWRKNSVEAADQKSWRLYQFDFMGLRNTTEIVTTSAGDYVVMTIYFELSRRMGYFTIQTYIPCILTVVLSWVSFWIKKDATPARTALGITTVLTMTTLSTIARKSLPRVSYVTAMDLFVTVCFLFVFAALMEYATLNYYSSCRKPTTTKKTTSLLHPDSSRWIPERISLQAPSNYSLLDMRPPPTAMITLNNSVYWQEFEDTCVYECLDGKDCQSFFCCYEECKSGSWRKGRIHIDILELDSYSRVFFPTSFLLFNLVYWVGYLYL
T1 sequence (P47870 25-512 limits assumed): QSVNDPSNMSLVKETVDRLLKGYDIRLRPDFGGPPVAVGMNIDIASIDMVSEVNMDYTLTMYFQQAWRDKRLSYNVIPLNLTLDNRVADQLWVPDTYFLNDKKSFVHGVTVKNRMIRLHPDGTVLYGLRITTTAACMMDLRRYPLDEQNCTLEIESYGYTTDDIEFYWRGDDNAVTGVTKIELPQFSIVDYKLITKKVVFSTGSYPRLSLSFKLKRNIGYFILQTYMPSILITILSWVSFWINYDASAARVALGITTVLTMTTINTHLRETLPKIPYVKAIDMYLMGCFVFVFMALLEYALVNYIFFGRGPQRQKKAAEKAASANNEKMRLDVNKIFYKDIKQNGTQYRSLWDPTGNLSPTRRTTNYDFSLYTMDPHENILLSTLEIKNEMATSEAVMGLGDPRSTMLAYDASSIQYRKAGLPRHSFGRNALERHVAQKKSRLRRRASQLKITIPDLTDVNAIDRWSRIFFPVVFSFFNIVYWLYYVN
T1 sequence (P14867 28-456): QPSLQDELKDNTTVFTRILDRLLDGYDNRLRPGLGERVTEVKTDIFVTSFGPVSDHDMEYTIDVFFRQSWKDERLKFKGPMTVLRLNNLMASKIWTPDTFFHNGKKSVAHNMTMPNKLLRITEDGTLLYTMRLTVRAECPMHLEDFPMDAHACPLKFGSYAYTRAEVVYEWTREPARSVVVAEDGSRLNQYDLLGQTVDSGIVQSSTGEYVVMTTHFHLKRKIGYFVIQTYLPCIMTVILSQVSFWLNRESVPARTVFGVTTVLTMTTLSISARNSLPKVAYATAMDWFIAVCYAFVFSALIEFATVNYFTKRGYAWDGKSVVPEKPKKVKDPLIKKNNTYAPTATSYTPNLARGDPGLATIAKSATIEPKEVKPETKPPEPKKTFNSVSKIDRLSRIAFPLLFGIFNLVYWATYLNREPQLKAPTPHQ
Description: (§1) To ensure homogenous receptor populations and subunit orientation, we used concatenated receptors expressed in X. laevis oocytes. Concatenated pentameric constructs were created using the subunits γx-β2-α1-β2-α1 (where x = 1, 2, or 3). […] Briefly, natural restriction sites BamHI, HindIII, and KpnI restriction sites in the γ1, 2, 3, β2, or α1 subunits were removed through silent mutations using site-directed mutagenesis. […] Inserted linker lengths are as follows γx-13a-β2-27a-α1-18a-β2-27a-α1.
(§2) The collection and preparation of oocytes were done as previously described ([Ahring et al., 2016]). […] Oocytes were prepared by slicing lobes into small pieces and defolliculated through collagenase A treatment. Stage V and VI oocytes were injected with around 50 nL of 0.5 ng/nL RNA for each concatenated construct or α1/β2 subunits in a 1:1 ratio and incubated for 3–4 days at 18°C in modified Barth’s solution (96 mM NaCl, 2.0 mM KCl, 1 mM MgCl2, 1.8 mM CaCl2, 5 mM HEPES, 2.5 mM sodium pyruvate, 0.5 mM theophylline, and 100 μg/mL gentamicin; pH 7.4).
(§3) This technique was performed as previously described ([Ahring et al., 2016], [2018]; [Liao et al., 2019]). Briefly, oocytes sit in a custom-built chamber and continuously perfused with a saline solution, ‘ND96’ (96 mM NaCl, 2 mM KCl, 1 mM MgCl2, 1.8 mM CaCl2, and 10 mM HEPES; pH 7.4). Glass electrode pipettes were filled with 3 M KCl, with resistances ranging from 0.4 to 2 MΩ. Oocytes were clamped to −60 mV using an Axon GeneClamp 500B amplifier (Molecular Devices). Currents were filtered at 20 Hz with a four-pole low pass Bessel filter (Axon GeneClamp 500 B) and digitized by a Digidata 1440A (Molecular Devices). Sampling was taken at 200 Hz and analyzed using pClamp 10.2 suite (Molecular Devices).
(§4) Each recording day, a fresh stock was used to prepare dilutions. The maximal concentration of DMSO in final drug ND96 solutions was <0.1%.
(§5) The drug modulation experiments were done as follows.
(§6) The final dataset was from a minimum of four experiments and a minimum of two different X. laevis donors. Raw traces were analyzed using pClamp 10.2. Episodic traces for each application were overlaid and the baseline was subtracted. Peak current amplitude was quantified by measuring maximum inward current for each response. Peak current amplitudes (I) were fitted to the Hill equation and normalized to the maximal fitted response (Imax). […] The Emax response and EC50 values were calculated by using non-linear regression to fit the data to the Hill equation in a monophasic model with three variables (top, bottom, EC50) using GraphPad Prism 8. Efficacy at infinitely low compound concentration was set to 0, and the slope was constrained to 1. Means are reported ± one SD.

[2] = target: T2, human α1β2γ2 GABAA receptors (Homo sapiens, UniProt P14867+P18507+P47870); details: γ2 (α1β2γ2); for Modulation at 10 μM: 10 μM co-applied with GABA EC10, percentage potentiation of GABA EC10; for Emax (%): percent of current through GABA EC10, Hill fit
T2 sequence (P18507 40-475, one chain of several): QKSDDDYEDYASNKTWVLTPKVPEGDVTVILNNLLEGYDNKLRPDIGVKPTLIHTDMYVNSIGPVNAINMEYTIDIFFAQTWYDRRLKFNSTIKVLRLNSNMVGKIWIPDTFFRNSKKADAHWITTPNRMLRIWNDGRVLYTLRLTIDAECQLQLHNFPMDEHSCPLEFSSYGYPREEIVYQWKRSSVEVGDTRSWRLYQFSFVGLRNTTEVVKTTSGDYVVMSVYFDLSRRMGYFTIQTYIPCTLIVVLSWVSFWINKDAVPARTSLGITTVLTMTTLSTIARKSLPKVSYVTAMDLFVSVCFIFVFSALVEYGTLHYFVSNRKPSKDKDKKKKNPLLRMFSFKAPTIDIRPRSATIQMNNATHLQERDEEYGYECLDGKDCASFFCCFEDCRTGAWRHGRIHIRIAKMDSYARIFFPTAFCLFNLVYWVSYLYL
Description: as §1, §2, §3, §4, §5, §6

[3] = target: T2, human α1β2γ2 GABAA receptors; assay: cell-based; details: for EC50: EC50, γ2 (α1β2γ2), co-applied with GABA EC10; for Emax: γ2 (α1β2γ2), percent of current through GABA EC10, Hill fit
Description: as §1, §2, §3, §4, §5, §6

[4] = target: T3, human α1β2γ1 GABAA receptors (Homo sapiens, UniProt P14867+P47870+Q8N1C3); details: γ1 (α1β2γ1); for Modulation at 10 μM: 10 μM co-applied with GABA EC10, percentage potentiation of GABA EC10; for EC50: co-applied with GABA EC10; for Log(EC50): logarithm of EC50, mean ± SD; for Emax (%): percent of current through GABA EC10, Hill fit, 0.1 nM-10 μM
T3 sequence (Q8N1C3 36-465): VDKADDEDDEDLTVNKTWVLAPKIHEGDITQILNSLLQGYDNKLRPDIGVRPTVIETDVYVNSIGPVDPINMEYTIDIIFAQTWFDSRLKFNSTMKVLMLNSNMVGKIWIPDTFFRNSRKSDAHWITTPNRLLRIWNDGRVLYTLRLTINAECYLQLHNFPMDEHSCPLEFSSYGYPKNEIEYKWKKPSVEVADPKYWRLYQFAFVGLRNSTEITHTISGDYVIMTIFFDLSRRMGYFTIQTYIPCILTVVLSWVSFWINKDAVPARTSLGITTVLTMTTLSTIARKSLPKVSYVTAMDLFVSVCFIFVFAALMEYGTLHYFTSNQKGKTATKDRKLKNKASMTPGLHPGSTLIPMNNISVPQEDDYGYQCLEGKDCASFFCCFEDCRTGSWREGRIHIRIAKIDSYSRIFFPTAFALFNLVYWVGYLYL
T3 sequence (P47870 25-512 limits assumed): T1 sequence (P47870 25-512 limits assumed)
T3 sequence (P14867 28-456): T1 sequence (P14867 28-456)
Description: as §1, §2, §3, §4, §5, §6

[5] = target: recombinant α1β2γ3 GABAA receptors; set-up: method as in Lippa et al., 2005; details: ref Lippa et al., 2005, cited from earlier work
[6] = target: T1, human α1β2γ3 GABAA receptors; assay: cell-based; details: for EC50: EC50, γ3 (α1β2γ3), co-applied with GABA EC10
Description: as §1, §2, §3, §4, §5, §6

[7] = target: T3, human α1β2γ1 GABAA receptors; details: γ1; GABA concentration-response
Description: (§7) To ensure homogenous receptor populations and subunit orientation, we used concatenated receptors expressed in X. laevis oocytes. Concatenated pentameric constructs were created using the subunits γx-β2-α1-β2-α1 (where x = 1, 2, or 3).
(§8) The collection and preparation of oocytes were done as previously described ([Ahring et al., 2016]). Briefly, ovarian lobes were removed from anesthetized adult X. laevis following protocol approval by the Animal Ethics Committee of The University of Sydney (AEC No. 2016/970) in accordance with the National Health and Medical Research Council of Australia code for the care and use of animals. […]
(§9) This technique was performed as previously described ([Ahring et al., 2016], [2018]; [Liao et al., 2019]). […] Sampling was taken at 200 Hz and analyzed using pClamp 10.2 suite (Molecular Devices).
(§10) Applications lasted for 30 s and were followed by 2–5 min of washout. EC50 and EC10 were calculated from this curve.
(§11) The final dataset was from a minimum of four experiments and a minimum of two different X. laevis donors. Raw traces were analyzed using pClamp 10.2. […] Peak current amplitude was quantified by measuring maximum inward current for each response. […] The Emax response and EC50 values were calculated by using non-linear regression to fit the data to the Hill equation in a monophasic model with three variables (top, bottom, EC50) using GraphPad Prism 8. […]

[8] = target: T2, human α1β2γ2 GABAA receptors; assay: GABA concentration-response, concatenated α1β2γ2 receptors in oocytes; assay type: cell-based; set-up: expressed in transfected cells; host or cells: Xenopus laevis oocytes injected with cRNA of the concatenated construct; details: γ2
Description: as §7, §8, §9, §10, §11

α2β2γ3 receptor [9] = details: earlier study, no reference given; cited from earlier work
[10] = target: T4, human binary α1β2 GABAA receptors (Homo sapiens, UniProt P14867+P47870); details: 10 μM co-applied with GABA EC10, percentage potentiation of GABA EC10
T4 sequence (P14867 28-456): T1 sequence (P14867 28-456)
T4 sequence (P47870 25-512 limits assumed): T1 sequence (P47870 25-512 limits assumed)
Protocol: as §2
This technique was performed as previously described ([Ahring et al., 2016], [2018]; [Liao et al., 2019]). Briefly, oocytes sit in a custom-built chamber and continuously perfused with a saline solution, ‘ND96’ (96 mM NaCl, 2 mM KCl, 1 mM MgCl2, 1.8 mM CaCl2, and 10 mM HEPES; pH 7.4). […] Sampling was taken at 200 Hz and analyzed using pClamp 10.2 suite (Molecular Devices). […]
as §11

γ3 GABAA receptors = details: 1999, cited from earlier work; for binding affinity with γ3 compared with γ2: competitive binding using Ro15-4513, ref Dämgen and Lüddens
α2β2γ3 receptor [11] = assay: Literature: efficacy and potency of zaleplon at α2β2γ3 receptor; assay type: cell-based; details: literature α2β2γ3 EC50 vs this paper's α1β2γ3 EC50
α2βγ1 receptors = test system: α2βγ1 receptors; set-up: method as in Wafford et al., 1993; Mckernan et al., 1995; details: α2βγ1 in X. laevis oocytes, ref Wafford et al., 1993, Mckernan et al., 1995, cited from earlier work
γ1-containing receptors = test system: γ1-containing receptors; set-up: method as in Benke et al., 1996; details: ref Benke et al., 1996; cited from earlier work
α1βγ1 receptors [12] = test system: α1βγ1 receptors; set-up: method as in Khom et al., 2006; details: α1βγ1 in X. laevis oocytes, ref Khom et al., 2006, cited from earlier work
α1βγ1 receptors [13] = details: HEK293 cells expressing α1βγ1, cited from earlier work
α1β2γ3 receptors = test system: α1β2γ3 receptors; set-up: method as in Davies et al., 2000; details: ref Davies et al., 2000; cited from earlier work

CCCN(CCC)C(=O)Cc1c(-c2ccc(Cl)cc2)nc2ccc(Cl)cn12 [Alpidem, alpidem]
Modulation at 10 μM ([1]; γ3 (α1β2γ3)): 126 ± 16%
EC50 ([1]; γ3 (α1β2γ3), co-applied with GABA EC10): No fit
Log(EC50) ([1]; γ3 (α1β2γ3), logarithm of EC50, mean ± SD): No fit
Emax (%) ([1]; γ3 (α1β2γ3)): No fit
Modulation at 10 μM [2]: 542 ± 176%
Emax (%) [2]: 512 ± 80%
Emax (%) ([2]; listed as alpidem): 475–550%
EC50 [3]: 500 nM and 502 nM
Modulation at 10 μM [4]: 40%
EC50 [4]: No fit
Log(EC50) [4]: No fit
Emax (%) [4]: No fit

CN1C(=O)CN=C(c2ccccc2)c2cc(Cl)ccc21 [Diazepam, diazepam]
Modulation at 10 μM ([1]; γ3 (α1β2γ3)): 156 ± 35%
Modulation at 10 μM [2]: 272 ± 46%
Emax [3]: 284 ± 23%
EC50 ([5]; recombinant α1β2γ3): 1950 nM
Emax α1β2γ2 vs. α1β2γ3 [5]: no reduction in Emax
Emax [6]: 168 ± 24%
Modulation at 10 μM [4]: 43 ± 6%
Modulation at 10 μM ([4]; listed as diazepam): 40%
Emax (%) [4]: No fit

CN1CCN(C(=O)O[C@H]2c3nccnc3C(=O)N2c2ccc(Cl)cn2)CC1 [Eszopiclone, eszopiclone]
fold reduction in Emax when γ3 replaced γ2 ([1]; Emax α1β2γ2 vs α1β2γ3): 1.5 fold
Modulation at 10 μM ([1]; γ3 (α1β2γ3)): 199 ± 26%
Modulation at 10 μM [2]: 349 ± 70%
EC50 [3]: 301 nM
Emax [3]: 356 ± 37%
Emax [6]: 207 ± 20%
EC50 [6]: 554 nM
Modulation at 10 μM [4]: 18 ± 19%
Modulation at 10 μM ([4]; listed as eszopiclone): 20%
EC50 [4]: No fit
Log(EC50) [4]: No fit
Emax (%) [4]: No fit

NCCCC(=O)O [GABA, γ-Aminobutyric-acid]
Hill slope [7]: 1.22 ± 0.32
Hill slope [8]: 1.19 ± 0.55

CC(=O)N(C)c1cccc(-c2ccnc3c(C(=O)c4cccs4)cnn23)c1 [Indiplon, indiplon]
fold greater potency for γ2 vs. γ3 (fold reduction in potency when γ3 replaces γ2) ([1]; EC50 α1β2γ3 vs α1β2γ2): ~4 fold
Modulation at 10 μM ([1]; γ3 (α1β2γ3)): 249 ± 14%
Modulation at 10 μM [2]: 238 ± 31%
EC50 [3]: 10 nM and 13.1 nM
Emax [3]: 231 ± 18%
Emax [6]: 263 ± 18%
EC50 [6]: 45 nM and 47.8 nM
Modulation at 10 μM [4]: 22 ± 7%
EC50 [4]: No fit
Log(EC50) [4]: No fit
Emax (%) [4]: No fit

CCN(C(C)=O)c1cccc(-c2ccnc3c(C#N)cnn23)c1 [Zaleplon, zaleplon]
fold greater potency at γ3 receptors compared with γ2 [1]: ~4 fold
fold greater potency at γ3 receptors compared with γ2 ([1]; listed as zaleplon): four-fold increase in potency
Modulation at 10 μM ([1]; γ3 (α1β2γ3)): 262 ± 53%
EC50 (α2β2γ3 receptor [9]): ~500 nM
Modulation at 10 μM [2]: 305 ± 59%
EC50 [3]: 203 nM
Emax [3]: 307 ± 34%
Modulation at 10 μM, (I-Ic)/Ic [10]: 25%
Emax [6]: 277 ± 26%
EC50 [6]: 56 nM
binding affinity with γ3 compared with γ2 (γ3 GABAA receptors): eightfold higher affinity
fold less potency at α2β2γ3 than seen on α1β2γ3 (α2β2γ3 receptor [11]): 10 fold
Modulation at 10 μM [4]: 126 ± 3%
Modulation at 10 μM ([4]; listed as zaleplon): 125%
EC50 [4]: No fit
Log(EC50) [4]: No fit
Emax (%) [4]: No fit

Cc1ccc(-c2nc3ccc(C)cn3c2CC(=O)N(C)C)cc1 [Zolpidem, zolpidem]
Modulation at 10 μM ([1]; γ3 (α1β2γ3)): 101 ± 37%
Emax (%) ([1]; γ3 (α1β2γ3)): No fit
Modulation at 10 μM [2]: 484 ± 124%
Emax (%) [2]: 487 ± 66%
Emax [3]: 475 to 550%
maximum efficacy (α2βγ1 receptors): ≤ 20%
maximum efficacy (α2βγ1 receptors; listed as zolpidem): below 20%
binding to the classical γ3 receptor benzodiazepine site (γ3 GABAA receptors; competition with flunitrazepam or Ro-154513, ref Herb et al., 1992, Lüddens et al., 1994, Tögel et al., Hadingham et al., 1995, Sieghart, Dämgen and Lüddens): no binding
binding (γ1-containing receptors): no binding
maximum efficacy (α1βγ1 receptors [12]): ≤ 20%
maximum efficacy (α1βγ1 receptors [12]; listed as zolpidem): below 20%
EC50 (α1βγ1 receptors [13]; ref Esmaeili et al., 2009): ~200 nM
potentiation (α1βγ1 receptors [13]; ref Puia et al., 1991): 50–75%
Modulation at 10 μM [4]: 15 ± 6%
Modulation at 10 μM ([4]; listed as zolpidem): 15%
Emax (%) [4]: No fit

CN1CCN(C(=O)OC2c3nccnc3C(=O)N2c2ccc(Cl)cn2)CC1 (stereo not drawn) [zopiclone]
binding affinity with γ3 compared with γ2 (γ3 GABAA receptors): marginal reduction in binding affinity
efficacy and potency at α1β2γ3 compared with α1β2γ2 (α1β2γ3 receptors): comparable efficacy and potency

Reference: PMC7710685 (Frontiers in Neuroscience, 2020)
